Assay results as given in the NIST ThermoML archive (doi:10.1007/s10765-014-1730-1).
± gives the expanded uncertainty stated by the source.

Details: Vibrating tube method; for specific volume: Gas; for mass density: Liquid

F/C=C\C(F)(F)F [(Z)-1,3,3,3-tetrafluoro-1-propene]
Details	mass density [kg/m3]	specific volume [m3/kg]
328.15 K, 202.5 kPa	–	0.111 ± 0.001
328.15 K, 209.8 kPa	–	0.107 ± 0.001
328.15 K, 232.5 kPa	–	0.095 ± 0.001
328.15 K, 370.9 kPa	–	0.057 ± 0.001
330.15 K, 287.2 kPa	–	0.076 ± 0.001
333.15 K, 90.7 kPa	–	0.26 ± 0.005
333.15 K, 126.2 kPa	–	0.185 ± 0.003
333.15 K, 206.1 kPa	–	0.111 ± 0.001
333.15 K, 213.5 kPa	–	0.107 ± 0.001
333.15 K, 236.7 kPa	–	0.096 ± 0.001
333.15 K, 378.4 kPa	–	0.057 ± 0.001
333.15 K, 30992 kPa	1237.9 ± 1.7	–
333.15 K, 31993 kPa	1240.4 ± 1.7	–
333.16 K, 3769 kPa	1141.2 ± 1.7	–
333.16 K, 4787 kPa	1146.4 ± 1.7	–
333.16 K, 5795 kPa	1151.4 ± 1.7	–
333.16 K, 6804 kPa	1156.2 ± 1.7	–
333.16 K, 7816 kPa	1160.8 ± 1.7	–
333.16 K, 8825 kPa	1165.2 ± 1.7	–
333.16 K, 9828 kPa	1169.5 ± 1.7	–
333.16 K, 10837 kPa	1173.6 ± 1.7	–
333.16 K, 11848 kPa	1177.7 ± 1.7	–
333.16 K, 12859 kPa	1181.6 ± 1.7	–
333.16 K, 13868 kPa	1185.4 ± 1.7	–
333.16 K, 15876 kPa	1192.7 ± 1.7	–
333.16 K, 16881 kPa	1196.2 ± 1.7	–
333.16 K, 17896 kPa	1199.7 ± 1.7	–
333.16 K, 18911 kPa	1203 ± 1.7	–
333.16 K, 19925 kPa	1206.3 ± 1.7	–
333.16 K, 20935 kPa	1209.5 ± 1.7	–
333.16 K, 21937 kPa	1212.6 ± 1.7	–
333.16 K, 23957 kPa	1218.6 ± 1.7	–
333.16 K, 24963 kPa	1221.5 ± 1.7	–
333.16 K, 25970 kPa	1224.4 ± 1.7	–
333.16 K, 26975 kPa	1227.2 ± 1.7	–
333.16 K, 27976 kPa	1229.9 ± 1.7	–
333.16 K, 28983 kPa	1232.6 ± 1.7	–
333.16 K, 29987 kPa	1235.2 ± 1.7	–
333.16 K, 32999 kPa	1243 ± 1.7	–
333.16 K, 34003 kPa	1245.5 ± 1.8	–
333.17 K, 574 kPa	1123.1 ± 1.7	–
333.17 K, 754 kPa	1124.2 ± 1.7	–
333.17 K, 1756 kPa	1130.2 ± 1.7	–
333.17 K, 2756 kPa	1135.8 ± 1.7	–
333.17 K, 14875 kPa	1189.1 ± 1.7	–
333.17 K, 22950 kPa	1215.6 ± 1.7	–
335.15 K, 292.6 kPa	–	0.077 ± 0.001
338.15 K, 92.1 kPa	–	0.26 ± 0.005
338.15 K, 128.2 kPa	–	0.185 ± 0.003
338.15 K, 209.7 kPa	–	0.111 ± 0.001
338.15 K, 217.2 kPa	–	0.107 ± 0.001
338.15 K, 240.9 kPa	–	0.096 ± 0.001
338.15 K, 385.9 kPa	–	0.057 ± 0.001
340.15 K, 298 kPa	–	0.077 ± 0.001
343.14 K, 680 kPa	1090.7 ± 1.7	–
343.14 K, 761 kPa	1091.4 ± 1.7	–
343.14 K, 1766 kPa	1098.6 ± 1.7	–
343.14 K, 2771 kPa	1105.3 ± 1.7	–
343.14 K, 3798 kPa	1111.8 ± 1.7	–
343.14 K, 4828 kPa	1117.9 ± 1.7	–
343.14 K, 5833 kPa	1123.5 ± 1.7	–
343.14 K, 6839 kPa	1129 ± 1.7	–
343.14 K, 7846 kPa	1134.2 ± 1.7	–
343.14 K, 8850 kPa	1139.2 ± 1.7	–
343.14 K, 9856 kPa	1144 ± 1.7	–
343.14 K, 10867 kPa	1148.6 ± 1.7	–
343.14 K, 11874 kPa	1153.1 ± 1.7	–
343.14 K, 12884 kPa	1157.5 ± 1.7	–
343.14 K, 13894 kPa	1161.7 ± 1.7	–
343.14 K, 14898 kPa	1165.7 ± 1.7	–
343.14 K, 15909 kPa	1169.7 ± 1.7	–
343.14 K, 16918 kPa	1173.5 ± 1.7	–
343.14 K, 17921 kPa	1177.2 ± 1.7	–
343.14 K, 18924 kPa	1180.9 ± 1.7	–
343.14 K, 19929 kPa	1184.4 ± 1.7	–
343.14 K, 20931 kPa	1187.8 ± 1.7	–
343.14 K, 21941 kPa	1191.3 ± 1.7	–
343.14 K, 22943 kPa	1194.6 ± 1.7	–
343.14 K, 24955 kPa	1201 ± 1.7	–
343.14 K, 25963 kPa	1204 ± 1.7	–
343.14 K, 26970 kPa	1207.1 ± 1.7	–
343.14 K, 27977 kPa	1210 ± 1.7	–
343.14 K, 28983 kPa	1212.9 ± 1.7	–
343.14 K, 29990 kPa	1215.8 ± 1.7	–
343.14 K, 30998 kPa	1218.7 ± 1.7	–
343.14 K, 32004 kPa	1221.4 ± 1.7	–
343.14 K, 34007 kPa	1226.7 ± 1.7	–
343.15 K, 93.6 kPa	–	0.26 ± 0.005
343.15 K, 130.3 kPa	–	0.185 ± 0.003
343.15 K, 213.3 kPa	–	0.111 ± 0.001
343.15 K, 220.9 kPa	–	0.107 ± 0.001
343.15 K, 245.1 kPa	–	0.096 ± 0.001
343.15 K, 393.2 kPa	–	0.057 ± 0.001
343.15 K, 23946 kPa	1197.8 ± 1.7	–
343.15 K, 33006 kPa	1224.1 ± 1.7	–
345.15 K, 303.3 kPa	–	0.077 ± 0.001
348.15 K, 95 kPa	–	0.26 ± 0.005
348.15 K, 132.4 kPa	–	0.185 ± 0.003
348.15 K, 216.8 kPa	–	0.111 ± 0.001
348.15 K, 224.6 kPa	–	0.107 ± 0.001
348.15 K, 249.2 kPa	–	0.096 ± 0.001
348.15 K, 400.6 kPa	–	0.057 ± 0.001
350.15 K, 308.6 kPa	–	0.077 ± 0.001
